Data from US11952593B2, “Detection and treatment of daughter number variations in cancer cells” (PharmacoGenetics Limited, priority 2020, dated 2024).

Key:
A549 cells = experiment: Cell cytotoxicity assay (crystal violet), A549; assay type: cell-based, human; settings: A549, 24 hours, 50 μM wogonin, 20 μM 5-FU, absorbance 600 nm
Description: Cell cytotoxicity assay was carried out on 96 well plate, where cells were treated with neutral, acidic, alkaline pH and anti-cancer drug wogonin or 5-FU. After 24 hours, crystal violet (8% in methanol), and dye absorbed by live cells was extracted with sodium citrate (0.1 M) in 50% ethanol. Absorbance was read at 600 nm.
HepG2, HeLa and A549 cells were grown to a monolayer density of 1×10^3 per well in neutral growth medium overnight. There upon the cells were changed to various treatment media at neutral, acidic and alkaline pHs, neutral medium containing 50 μM wogonin and neutral medium containing 20 μM 5-FU, for 24 hours at 37° C. in humidified 5% CO2 atmosphere. Following the treatment, floating cells were removed, and the attached cells were stained with crystal violet (8% in methanol); the dye absorbed by the live cells was extracted with sodium citrate (0.1 M) in 50% ethanol [1 25], and quantitated by absorbance at 600 nm.

[1] = system: HeLa cervical adenocarcinoma cells; experiment: Time-lapse microscopy count of multi-daughter divisions (DNV frequency), HeLa; assay type: cell-based, human; settings: wogonin 50 μM, 5-FU 20 μM
Description: To investigate DNVs, the human HepG2 hepatocellular carcinoma, HeLa cervical adenocarcinoma, and A549 lung adenocarcinoma cell lines, as well as the non-cancerous RPE1 line of hTRET-immortalized retina epithelial cells, were obtained from the American Type Culture Collection (ATCC, Manassas, Va., USA) and cultivated in Dulbecco's Modified Eagle Medium (DMEM) supplemented with 10% fetal bovine serum (Gemini Bio-Products, Sacramento. Calif.) under a humidified atmosphere of 5% C02 at 37° C. After 24 hours, the old medium was replaced by acidic DMEM growth medium buffered by 15 mM 2-(N-morpholino)-ethanesulfonic acid.HCl (MES) at pH 6.4, neutral DMEM growth medium buffered by 15 mM 3-(N-morpholino)propanesulfonic acid.HCl (MOPS) at pH 7.4, alkaline growth medium buffered by 15 mM tris(hydroxymethyl)aminomethane.HCl (Tris) at pH 8.4, or neutral DMEM growth medium containing wogonin (50 μM) or 5-FU (20 μM). Using phase contrast microscopy, time-lapse photographs were recorded at different positions of the wells at 15-minute intervals for 24 hours using the Nikon ECLIPSE Ti Live Cell Imaging Observatory, enabling the count of P1 through P8 patterns at the end of Stage 2 of the DNV process (FIG. 1). All the images were photographed at 100× magnification. Altemately, using fluorescence microscopy, the cells were seeded into 12 well plates at 1×10^3 per well and stained with Hoechst 33342 ([…], Thermofisher) for 30 minutes in an incubator at 37° C. After 30 minutes, culture medium was replaced by various treatment media and placed under the Nikon ECLIPSE Ti Live Cell Imaging Observatory for 24 hours. For the HeLa, HepG2 and A549 cells, the various treatments were also extended to 5 days. Because the RPE1 cells yielded no DNVs after 24 hours of drug treatment, its treatment periods were not extended beyond 24 hours. All the cells were manually traced and quantified using the ImageJ software. DNV frequencies were estimated by dividing the total number of multi-daughter ([…]) divisions by the total number of cell divisions. Fluorescence staining and time-lapse microscopy were employed to differentiate between the bi-, tri-, tetra- and penta-daughter cell divisions, and to estimate the percentages of the P1 through P8 patterns in the final daughter cells generated by each of the DNV events. GraphPad Prism 5.0 software was employed for statistical analysis, and the results were presented as the mean. Significance was determined using the Student t-test (two-tailed, unpaired/unequal variances).

Structure (SMILES) | Cell death as compared to neutral pH (A549 cells) | Bi-daughter divisions, % of total divisions ([1]; 24 hours) [%] | Bi-daughter divisions, number ([1]; 24 hours) | Sum of Multi daughter Divisions, % of total mitotic divisions ([1]; 24 hours) [%] | Sum of Multi daughter Divisions, number ([1]; 24 hours) | Tetra-daughter divisions, % of total divisions ([1]; 24 hours) [%] | Tetra-daughter divisions, number ([1]; 24 hours) | Total number of observed divisions ([1]; 24 hours) | Tri-daughter divisions, % of total divisions ([1]; 24 hours) [%] | Tri-daughter divisions, number ([1]; 24 hours) | ≥Tetra-daughter divisions, number ([1]; 24 hours) | Bi-daughter divisions, % of total divisions ([1]; 5 days) [%] | Bi-daughter divisions, number ([1]; 5 days) | Sum of Multi-daughter Divisions, % of total mitotic divisions ([1]; 5 days) [%] | Sum of Multi-daughter Divisions, number ([1]; 5 days) | Tetra-daughter divisions, number ([1]; 5 days) | Total Divisions ([1]; 5 days) | Tri-daughter divisions, % of total divisions ([1]; 5 days) [%] | Tri-daughter divisions, number ([1]; 5 days) | ≥Tetra-daughter divisions, number ([1]; 5 days) | further results
O=c1[nH]cc(F)c(=O)[nH]1 [5-FU, 5-flurouracil] | increased cell death | 99.0 | 3264 | 0.97 | 32 | 0.09 | 3 | 3296 (100) | 0.88 | 29 | 0 | 91.8 | 143 | 8.3 | 13 | 0 | 156 (100) | 8.3 | 13 | 0 | 
COc1c(O)cc(O)c2c(=O)cc(-c3ccccc3)oc12 [Wogonin, wogonin] | increased cell death | 98.3 | 3041 | 1.70 | 53 | 0.19 | 6 | 3094 (100) | 1.54 | 47 | 0 | 84 | 205 | 16.3 | 40 | 6 | 245 (100) | 13.0 | 32 | 2 | Tetra-daughter divisions, % of total divisions ([1]; 5 days): 2.4%; ≥Tetra-daughter divisions, % of total divisions ([1]; 5 days): 0.8%
